19 molecules from US8633208B2, “6-1H-imidazo-quinazoline and quinolines derivatives, new MAO inhibitors and imidazoline receptor ligands” (Rottapharm S.p.A, priority 2008, dated 2014) can be followed below.

Structures can show the parent of a compound that is named as a salt. Where two headings read alike, the source gives them in different places. Bounds are passed on as bounds.

For one data set, the target named is human recombinant MAO-B (Homo sapiens (Human), UniProt P27338). The data set is described as follows: Monoaminooxidase (MAO) activity assay, MAO-Glo luminescent method, MAO-B.
In a further data set the target is human recombinant MAO-A (Homo sapiens (Human), UniProt P21397). The data set is described as follows: Monoaminooxidase (MAO) activity assay, MAO-Glo luminescent method, MAO-A.
A further data set concerns the target I2 Imidazoline Receptor. The data set is described as follows: Binding study towards I2 imidazoline receptor subtype in rat brain ([3H]2-BFI displacement). The settings on record: read-out: [3H]2-BFI binding IC50; rat whole brain membranes, [3H]-2BFI 2.5x10-9 M, 90 min at 25° C. The procedure: Binding Study Towards I2 Imidazoline Receptor Subtype in Rat Brain.
Male Wistar rats (240-300 g, Harlan, Italy) were sacrificed by decapitation. Whole brains were immediately removed on ice and homogenised in 10 volumes of buffered sucrose (0.32M in 50 mM Tris-HCl, pH 7.4 at 4° C.) using a motor driven Teflon-glass homogeniser. The homogenate was centrifuged at 1000×g for 10 min at 4° C. The resultant supernatants were pooled and centrifuged at 32000×g for 20 min at 4° C. The supernatants were discarded and each pellet suspended in 10 volumes of assay buffer (50 mM Tris-HCl, 1 mM MgCl2, pH 7.4 at 4° C.) and spun at 32000×g for 20 min at 4° C. The pellets were washed twice by repeated centrifugation at 32000×g for 20 min at 4° C. The final pellets were stored at −80° C. until use. Prior to radioligand binding studies, membrane pellets were thawed and washed a further 4 times by re-suspension in 10 volumes of assay buffer (as above) and repeated centrifugation to remove any possible endogenous inhibitors of binding. […] Non specific binding was determined in the presence of 10^-5 M BU224 (Tocris Bioscience). The incubation, in a final volume of 1 ml, was performed in polystyrene multiwell 24, started adding membranes suspension and was carried out for 90 min at 25° C. With the exception of total binding and non specific binding, all concentration points were performed in duplicate. Compounds were tested in 3-5 different concentrations, ranging from 10^-10 M to 10^-5 M final concentration.

A further data set relates to rats. The data set is described as follows: CFA model of inflammatory pain in rats (Randall-Selitto), potentiation of a low dose of morphine. The data set is classed as in vivo.
The next data set deals with CD1 Mice. The data set is described as follows: Tail suspension test in mice. The data set is classed as in vivo. Particulars: for ED50: oral. The procedure: Tail Suspension Test in Mice
To evaluate novel antidepressants compounds several animal models have been developed. […] The antidepressant effect of representative examples of compounds of formula (I) has been evaluated according to the procedure below. The immobility was induced according to the procedure of Stem et al. (1985). CD1 Mice (Harlan, Italy) were individually suspended 75 cm above the top with an adhesive tape placed 1 cm from the tip of the tail. Immobility duration was recorded for 5 min. Mice were considered immobile only when they hung passively and completely motionless. Compounds were given orally, 30 min before the test at doses ranging between 0.3 and 30 mg/kg. Data collected were expressed as mean percent effect (MPE), which represents the % of inhibition in immobility time between the animals treated with representative compounds of formula (I) and the controls that received only the vehicle.

Where [1] appears, read: read-out: MAO A activity IC50, human recombinant MAO-A, substrate 40 μM, 60 min room temperature.
[2] abbreviates: Table 3, dose 3 mg/Kg OS, 30 min before the test.
Setting [3] is: Table 3, dose 10 mg/Kg OS, 30 min before the test.
The mark [4] stands for this setting: Table 3, dose 30 mg/Kg OS, 30 min before the test.
Where [5] appears, read: Table 3, dose yielding 50% reduction of immobility.

Chain of human recombinant MAO-B (P27338 whole entry): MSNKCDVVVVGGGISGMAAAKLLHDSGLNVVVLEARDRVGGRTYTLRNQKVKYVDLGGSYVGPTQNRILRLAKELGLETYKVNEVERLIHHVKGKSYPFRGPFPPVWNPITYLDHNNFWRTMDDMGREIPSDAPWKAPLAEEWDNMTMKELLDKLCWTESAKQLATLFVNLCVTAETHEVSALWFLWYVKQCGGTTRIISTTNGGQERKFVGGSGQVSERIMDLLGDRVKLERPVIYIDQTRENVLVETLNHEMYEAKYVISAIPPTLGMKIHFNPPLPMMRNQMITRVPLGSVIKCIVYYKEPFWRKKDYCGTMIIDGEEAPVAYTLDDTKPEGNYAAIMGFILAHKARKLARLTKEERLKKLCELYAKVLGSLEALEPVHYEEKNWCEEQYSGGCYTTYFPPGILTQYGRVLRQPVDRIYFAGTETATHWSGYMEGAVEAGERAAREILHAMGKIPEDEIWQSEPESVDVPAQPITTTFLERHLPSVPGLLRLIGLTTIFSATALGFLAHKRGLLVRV
Chain of human recombinant MAO-A (P21397 whole entry): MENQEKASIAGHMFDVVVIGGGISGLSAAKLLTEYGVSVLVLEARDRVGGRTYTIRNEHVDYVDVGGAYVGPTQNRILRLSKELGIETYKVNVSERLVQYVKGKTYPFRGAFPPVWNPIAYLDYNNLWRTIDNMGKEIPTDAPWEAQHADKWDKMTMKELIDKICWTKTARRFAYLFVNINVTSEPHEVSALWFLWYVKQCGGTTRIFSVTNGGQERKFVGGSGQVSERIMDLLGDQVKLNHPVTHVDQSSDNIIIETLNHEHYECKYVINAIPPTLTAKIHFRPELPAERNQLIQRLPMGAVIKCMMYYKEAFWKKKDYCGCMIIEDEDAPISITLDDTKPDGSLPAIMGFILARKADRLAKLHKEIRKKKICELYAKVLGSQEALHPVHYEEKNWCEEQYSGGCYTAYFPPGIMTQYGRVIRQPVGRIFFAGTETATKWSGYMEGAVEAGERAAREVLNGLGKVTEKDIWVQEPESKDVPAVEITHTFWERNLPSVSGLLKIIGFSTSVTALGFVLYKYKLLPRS
Procedure for human recombinant MAO-A: Monoaminooxidase (MAO) Activity Assay.
(§1) Inhibitory activity of compounds was evaluated by a homogeneous luminescent method, the MAO-Glo™ Assay (Promega), measuring the monoamine oxidase activity (MAOs) from recombinant source (microsomes from baculovirus infected insect cells, Sigma). Experiments were performed according to the Supplier's procedure, incubating human recombinant MAO-A or MAO-B with a luminogenic substrate, a derivative of beetle luciferin ((4S)-4,5-dihydro-2-(6-hydroxybenzothiazolyl)-4-thiazolecarboxylic acid). […] The MAO-Glo™ Assay was performed in two steps:
(§2) Step 1. The MAO reaction: MAO substrate was incubated with MAO-A or MAO-B (1 μg/sample) in the absence (Total activity) or presence (modulated activity) of test compounds. Total activity was determined in the presence the appropriate solvent. […] Reaction started adding the enzyme solution and samples were incubated for 60 min at room temperature. For negative control reaction, samples of MAO reaction buffer (100 mM Hepes, 5% glycerol, pH 7.5) indeed the test compound were included. For MAO-B activity assay, MAO reaction buffer contain 10% DMSO, in order to increase enzymatic activity. Step 2. […] At the end of incubation 50 μl of Luciferin Detection reagent were added to each well, plate was incubated at room temperature for 20 min, then luminescent signal was detected by luminometer (integration time 0.25-1 sec per well). […] Net MAO-dependent luminescence (net RLU) were calculated by subtracting the average luminescence of the negative control reaction without MAO enzyme. A reduction of net signal in the presence of test compound, with respect to total activity, reflect its effect on MAOs activity. […] A percentage of inhibition for each concentration tested were calculated and the IC50 value was estimated by linear regression.
Procedure for human recombinant MAO-B: Monoaminooxidase (MAO) Activity Assay.
as §1, §2

Turning to `c1ccc(-c2ncc3cc(-n4ccnc4)ccc3n2)cc1` [Example 1, [6-(1H-imidazol-1-yl)-2-phenyl]quinazoline], the values for the IC50 at human recombinant MAO-B, at human recombinant MAO-A (setting [1]) and at I2 Imidazoline Receptor were above 10000 nM, 220 nM and 680 nM, respectively. Besides, the “MPE 2 h (difference in pain threshold)” value in the data set on rats (rat, in vivo) is listed as 17.19%. The “MPE 3 h (difference in pain threshold)” value in the data set with rats (rat, in vivo) is given as 6.61%. For the same molecule, the “MPE 4 h (difference in pain threshold)” value in the data set with rats (rat, in vivo) turned out to be 2.46%. Besides, in the data set with CD1 Mice (0.3 mg/Kg Idazoxan, antagonist of imidazoline (I2) receptors), the “antidepressant-like effect in the presence of Idazoxan” value is listed as “blocked”. The “MPE (% inhibition in immobility time)” value came to 35% in the data set with CD1 Mice (Table 3, dose 0.3 mg/Kg OS, 30 min before the test); 38% with CD1 Mice (Table 3, dose 1 mg/Kg OS, 30 min before the test); 40% in the data set on CD1 Mice (setting [2]); 66% in the data set with CD1 Mice (setting [3]); 84% with CD1 Mice (setting [4]); 43% with CD1 Mice (Table 4, Example 1 dose 3 mg/Kg OS, alone or with Idazoxan 0.3 mg/Kg IP). The “MPE (% inhibition in immobility time)” value with CD1 Mice (Table 4, Example 1 dose 10 mg/Kg OS, alone or with Idazoxan 0.3 mg/Kg IP) is 54%; with CD1 Mice (Table 4, Example 1 dose 30 mg/Kg OS, alone or with Idazoxan 0.3 mg/Kg IP), 97%. Besides, the ED50 in the data set on CD1 Mice (setting [5]) is listed as 4.8 mg/Kg; OS; with CD1 Mice (Table 4), 5.1 mg/Kg; OS.
Molecule `Cc1nccn1-c1ccc2nc(-c3ccccc3)ncc2c1` [Example 2, [6-(2-methyl-1H-imidazol-1-yl)-2-phenyl]quinazoline] yielded a melting point of 198.3 to 200.3 °C. Moreover, the IC50 on human recombinant MAO-B was above 10000 nM. Also, at human recombinant MAO-A, the IC50 is above 10000 nM. In addition, on I2 Imidazoline Receptor, the half-maximal inhibitory concentration (IC50) worked out at 2400 nM. In the data set with CD1 Mice (setting [2]), the “MPE (% inhibition in immobility time)” value worked out at 17%. Further, in the data set with CD1 Mice (setting [3]), the “MPE (% inhibition in immobility time)” value is on record as 77%. Also, in the data set with CD1 Mice (setting [4]), the “MPE (% inhibition in immobility time)” value is listed as 83%. Also, the ED50 in the data set on CD1 Mice (setting [5]) is 7.1 mg/Kg; OS.
`Cc1cn(-c2ccc3nc(-c4ccccc4)ncc3c2)cn1` [Example 4, [6-(4-methyl-1H-imidazol-1-yl)-2-phenyl]quinazoline] came in with a melting point of 201.9 to 202.8 °C. In addition, the IC50 on human recombinant MAO-B was above 10000 nM. Moreover, the IC50 at human recombinant MAO-A (setting [1]) is 2060 nM. Also, the IC50 on I2 Imidazoline Receptor worked out at 480 nM.
In the case of `Cc1cncn1-c1ccc2nc(-c3ccccc3)ncc2c1` [Example 5, [6-(5-methyl-1H-imidazol-1-yl)-2-phenyl]quinazoline], the IC50 at human recombinant MAO-B is above 10000 nM; on human recombinant MAO-A, above 10000 nM; on I2 Imidazoline Receptor it was 1180 nM. The “MPE (% inhibition in immobility time)” value is recorded as 41% with CD1 Mice (setting [2]), 61% in the data set on CD1 Mice (setting [3]) and 91% with CD1 Mice (setting [4]). For the same molecule, in the data set with CD1 Mice (setting [5]), the ED50 was 4.9 mg/Kg; OS.
The molecule `COc1ccccc1-c1ncc2cc(-n3cnc(C)c3)ccc2n1` [Example 7, [6-(4-methyl-1H-imidazol-1-yl)-2-(2-methoxyphenyl)]quinazoline] yielded a melting point of 160.6 to 162 °C. In addition, the IC50 at human recombinant MAO-B was above 10000 nM. Further, on human recombinant MAO-A, the IC50 is above 10000 nM. Moreover, the IC50 on I2 Imidazoline Receptor amounted to 2180 nM.
With `Cc1cn(-c2ccc3nc(-c4ccc5c(c4)OCO5)ncc3c2)cn1` [Example 9, [6-(4-methyl-1H-imidazol-1-yl)-2-(1,3-benzodioxol-5-yl)]quinazoline], the figures for the IC50 on human recombinant MAO-B, on human recombinant MAO-A and at I2 Imidazoline Receptor were above 10000 nM, above 10000 nM and 1040 nM, respectively.
For the molecule `c1cn(-c2ccc3nc(-c4ccc5c(c4)OCO5)ncc3c2)cn1` [Example 13, [6-(1H-imidazol-1-yl)-2-(1,3-benzodioxol-5-yl)]quinazoline], the IC50 at human recombinant MAO-B is above 10000 nM; on human recombinant MAO-A (setting [1]) it was 10000 nM; on I2 Imidazoline Receptor it was 1340 nM.
On to `c1cn(-c2ccc3nc(-c4ccc5occc5c4)ncc3c2)cn1` [Example 14, [6-(1H-imidazol-1-yl)-2-(benzofuran-5-yl)-]quinazoline dihydrochloride trihydrate], for which the figures for the IC50 on human recombinant MAO-B, on human recombinant MAO-A (setting [1]) and on I2 Imidazoline Receptor were above 10000 nM, 350 nM and 610 nM, respectively.
With `c1cn(-c2ccc3nc(-c4ccc5c(c4)OCCO5)ncc3c2)cn1` [Example 15, [6-(1H-imidazol-1-yl)-2-(2,3-dihydro-1,4-benzodioxin-6-yl)]quinazoline], the figures for the IC50 on human recombinant MAO-B, on human recombinant MAO-A and at I2 Imidazoline Receptor were above 10000 nM, above 10000 nM and 500 nM, respectively.
Regarding `c1cn(-c2ccc3nc(-c4ccc5c(c4)OCO5)ccc3c2)cn1` [Example 16, [6-(1H-imidazol-1-yl)-2-(1,3-benzodioxol-5-yl)]quinoline dihydrochloride], the values for the 50% inhibitory concentration (IC50) at human recombinant MAO-B, at human recombinant MAO-A and at I2 Imidazoline Receptor were above 10000 nM, above 10000 nM and 190 nM, respectively. The “MPE (% inhibition in immobility time)” value in the data set on CD1 Mice (setting [2]) was found to be 41%; in the data set with CD1 Mice (setting [3]) it was 66%; in the data set on CD1 Mice (setting [4]), 100%. Moreover, the ED50 in the data set on CD1 Mice (setting [5]) is 4.6 mg/Kg; OS.
As to `COc1ccc(-c2ccc3cc(-n4ccnc4)ccc3n2)cc1` [Example 18, [6-(1H-imidazol-1-yl)-2-(4-methoxyphenyl)]quinoline dihydrochloride], the IC50 is above 10000 nM on human recombinant MAO-B, 670 nM on human recombinant MAO-A (setting [1]) and 1900 nM at I2 Imidazoline Receptor.
Turning to `COc1ccccc1-c1ccc2cc(-n3ccnc3)ccc2n1` [Example 19, [6-(1H-imidazol-1-yl)-2-(2-methoxyphenyl)]quinoline dihydrochloride], the IC50 on human recombinant MAO-B was above 10000 nM; at human recombinant MAO-A, above 10000 nM; on I2 Imidazoline Receptor, 3160 nM.
For `c1cn(-c2ccc3nc(-c4ccoc4)ccc3c2)cn1` [Example 20, [6-(1H-imidazol-1-yl)-2-(3-furyl)]quinoline dihydrochloride], the IC50 at human recombinant MAO-B was above 10000 nM; on human recombinant MAO-A (setting [1]), 250 nM; at I2 Imidazoline Receptor, 1190 nM.
With `Fc1ccc(-c2ccc3cc(-n4ccnc4)ccc3n2)cc1` [Example 21, [6-(1H-imidazol-1-yl)-2-(4-fluorophenyl)]quinoline dihydrochloride], the IC50 on human recombinant MAO-B is above 10000 nM; on human recombinant MAO-A, above 10000 nM; at I2 Imidazoline Receptor, 240 nM. Also, the “MPE (% inhibition in immobility time)” value is recorded as 36% in the data set with CD1 Mice (setting [2]), 72% with CD1 Mice (setting [3]) and 89% in the data set on CD1 Mice (setting [4]). Besides, the ED50 in the data set on CD1 Mice (setting [5]) is 4.9 mg/Kg; OS.
Take `CN(C)c1ccc(-c2ccc3cc(-n4ccnc4)ccc3n2)cc1` [Example 22, [6-(1H-imidazol-1-yl)-2-(4-dimethylaminophenyl)]quinoline trihydrochloride]: the IC50 on human recombinant MAO-B (read-out: MAO B activity IC50, human recombinant MAO-B, substrate 4 μM, 60 min room temperature) was 1490 nM; on human recombinant MAO-A (setting [1]) it was 2090 nM; on I2 Imidazoline Receptor, 3780 nM.
Turning to `FC(F)(F)Oc1ccc(-c2ccc3cc(-n4ccnc4)ccc3n2)cc1` [Example 23, [6-(1H-imidazol-1-yl)-2-(4-trifluoromethoxyphenyl)]quinoline dihydrochloride], the IC50 was above 10000 nM on human recombinant MAO-B, 150 nM on human recombinant MAO-A (setting [1]) and 820 nM at I2 Imidazoline Receptor.
Turning to `Cc1cc(OC(F)(F)F)ccc1-c1ccc2cc(-n3ccnc3)ccc2n1` [Example 24, [6-(1H-imidazol-1-yl)-2-(2-methyl-4-trifluoromethoxyphenyl)]quinoline dihydrochloride], the IC50 was above 10000 nM at human recombinant MAO-B, 280 nM at human recombinant MAO-A (setting [1]) and 1140 nM on I2 Imidazoline Receptor.
`c1ccc2c(c1)OCC(C1=NCCN1)O2` (stereo not drawn) [Idazoxan, reference compound]: the IC50 on human recombinant MAO-B is above 1000 nM; on human recombinant MAO-A, above 1000 nM; on I2 Imidazoline Receptor, 11 nM.
Take `CN1CC[C@]23c4c5ccc(O)c4O[C@H]2[C@@H](O)C=C[C@H]3[C@H]1C5` [Morphine, reference compound]: the “MPE 2 h (difference in pain threshold)” value in the data set on rats (2 h, Example 1 1.5 mg/Kg OS and/or Morphine 0.5 mg/Kg SC) stood at 42.88%. Besides, in the data set with rats (3 h, Example 1 1.5 mg/Kg OS and/or Morphine 0.5 mg/Kg SC), the “MPE 3 h (difference in pain threshold)” value is 30.49%. In the data set with rats (4 h, Example 1 1.5 mg/Kg OS and/or Morphine 0.5 mg/Kg SC), the “MPE 4 h (difference in pain threshold)” value was 15.04%.
